Measurements reported in patent publication US7320993B1, “Aryl-substituted pyridylalkane, alkene, and alkine carboxamides useful as cytostatic useful as cytostatic and immuosuppressive agents” (Astellas Deutschland GmbH, priority 1997, dated 2008).
Read-outs that look alike come from different tables or passages of the source.

Key:
A549 cells = assay: Growth inhibition of A549 human lung carcinoma cells (sulforhodamin-B method); assay type: cell-based
Method: (§1) The tumor growth inhibiting activity of the substances was determined on human tumor cells in standardized in vitro test systems. In the screening tests, the substances gave IC50-values in a concentration range of 0.1 nM to 10 μM.
(§2) A549 cells derived from a human lung carcinoma plated at a density of 20,000 cells/ml in 12-well plastic dishes. Cultivation occurred in Richters IMEM-ZO nutrient medium with 5% foetal calf serum (FCS) in a tissue culture incubator with a gas mixture of 5% CO2 and 95% air at a temperature of 37° C. One day after plating, the culture medium was aspirated from the cells and replaced by fresh medium which contained the respective concentrations of the test substances. For the individual concentrations and the controls without test substances, three-fold batches were done for each. Three days after the beginning of treatment, the medium was again renewed with the test compounds. After four days of substance incubation, the test was ended and the protein amount in the individual wells was determined with the sulforhodamin-B-method (according to P. Skehan et al.: New Colorimetric Cytotoxicity Assay for Anticancer-Drug Screening. J. Natl. Cancer Inst. 82: 1107-1112, 1990). The IC50-values (defined as that concentration in which the cell growth was inhibited by 50%) was taken from the dose-response curves and given as a comparative measurement for the activity of the test compounds.

HepG2 cells = assay: Growth inhibition of HepG2 human liver carcinoma cells (sulforhodamin-B method); assay type: cell-based
Method: as §1
as §2, with “HepG2” for “A549”, “liver” for “lung”, “[…]” for “20,000”, “six” for “four”

[1] = test system: freshly isolated lymphocytes; assay: Immunosuppressing activity on freshly isolated spleen lymphocytes (flow cytometry, vital cells); assay type: cell-based; settings: Lymphocyte, 48 h; Swiss mouse spleen lymphocytes, 2 days incubation, percentage of vital cells by flow-through cytometer
Source text: Many anti-tumor agents have not only a cytotoxic effect on tumor cells, but also on the blood cell system. This leads to a weakening of the immune defense, which can, in turn, be specifically employed to suppress the rejection reaction after an organ transplantation for example. Also use of the main compounds, optionally in combination with other immunological diseases (for example, psoriasis or autoimmune diseases) seems likely. In order to test the possibility for a therapeutic use in illnesses of this type, the substance activity was tested on freshly isolated lymphocytes as follows:
The spleen of a Swiss mouse served as a lymphocyte source. The lymphocyte population was isolated from the spleen cell […] suspension over a ficoll gradient and taken up in IMEM-ZO culture medium with 0.1% dextran 70,000 and 2% foetal calf serum. The cells were plated at a density of ca. 500,000 cells/well/ml in a 12-well plate, 1 ml doubly concentrated test substance solution was pipetted per well and this was subsequently incubated in a tissue culture incubator at 37° C. and 5% CO2. After 2 days, a 1 ml-aliquot with 5 μl of the fluorescent dye solutions propidium iodide (8 mg/ml) and 3,3′-dihexyloxacarbocyanin iodide (40 μg/ml) each was added per well, and incubated for 3 minutes at room temperature. Subsequently, 10,000 cells per each sample were measured on a flow-through cytometer and the percentage amount of vital cells in the population was determined. By means of the dose-response curves, IC50-values were calculated which were also employed in the following Tables for the characterization of the individual substances: […]

THP-1 cells = assay: Growth inhibition of THP-1 human monocytic leukemia cells (WST-1 reagent); assay type: cell-based
Method: as §1
THP-1 cells derived from a human monocytic leukemia plated at a density of 200,000 cells/ml in 96-well plastic dishes. Cultivation occurred in RPMI 1640 nutrient medium with 10% foetal calf serum (FCS) in a tissue culture incubator with a gas mixture of 5% CO2 and 95% air at a temperature of 37° C. For the individual concentrations and the controls without test substances as well as for the background with nutrient medium but without cells, three-fold batches were done for each. After four days of substance incubation 20 μl WST-1 reagent (Boehringer Mannheim) was respectfully pipetted in each individual well. After 30 to 60 minute incubation in the tissue culture incubator at 37° C. and 5% CO2, the light extinction was measured in an ELISA reader at 450 nm wave length. The backgrounds were each subtracted from the typical measured valves. The IC50-values (defined as that concentration in which the cell growth was inhibited by 50%) was taken from the dose-response curves and given as a comparative measurement for the activity of the test compounds.

[2] = 96 h, A549 cells, four days of substance incubation, protein amount by sulforhodamin-B, read-out: IC50-value
[3] = 144 h, HepG2 cells, six days of substance incubation, protein amount by sulforhodamin-B, read-out: IC50-value

| SMILES | melting point | further results |
| --- | --- | --- |
| O=C(C=Cc1cccnc1)NCCCCNC(=O)[C@@H]1C[C@H]1c1ccccc1 (relative stereo) [Substance 250, N-[4-(trans-2-phenyl-cyclopropyl-carbonylamino)-butyl]-3-pyridin-3-yl-acrylamide] | 194 to 196 °C |  |
| O=C(C=Cc1cccnc1)NCCCCCCCc1ccccc1 [Substance 3, N-(7-phenyl-heptyl)-3-pyridin-3-yl-acrylamide] | 61 to 63 °C | IC50 (A549 cells; [2]): 8000 nM |
| O=C(C=Cc1cccnc1)NCCCCC(O)(c1ccccc1)c1ccccc1 [Substance 27, N-(5-hydroxy-5,5-diphenyl-pentyl)-3-pyridin-3-yl-acrylamide] | 157 to 159 °C | IC50 (HepG2 cells; [3]): 40 nM |
| O=C(C=Cc1cccnc1)NCCCCCC(O)(c1ccccc1)c1ccccc1 [Substance 31, N-(6-hydroxy-6,6-diphenyl-hexyl)-3-pyridin-3-yl-acrylamide] | 145 to 147 °C |  |
| O=C(C=Cc1cccnc1)NCCCCCCCC(O)(c1ccccc1)c1ccccc1 [Substance 41, N-(8-hydroxy-8,8-diphenyloctyl)-3-pyridin-3-yl-acrylamide] | 139 to 140 °C |  |
| O=C(C=Cc1cccnc1)NCCCCn1cnc(-c2ccccc2)c1-c1ccccc1 [Substance 63, N-[4-(4,5-diphenyl-imidazol-1-yl)-butyl]-3-pyridin-3-yl-acrylamide] | 183 °C | IC50 (HepG2 cells; [3]): 8 nM; IC50 [1]: 0.3 nM |
| O=C(C=Cc1cccnc1)NCCCCC=C(c1ccccc1)c1ccccc1 [Substance 120, N-(6,6-diphenyl-hex-5-enyl)-3-pyridin-3-yl-acrylamide] | 120 to 121 °C | IC50 (HepG2 cells; HepG2, hepatocelluar carcinoma, methods of point 1, read-out: IC50-values): 0.5 nM; IC50 (THP-1 cells; 96 h, THP-1 cells, four days of substance incubation, WST-1, extinction at 450 nm, read-out: IC50-value): 0.2 nM; IC50 (THP-1 cells; THP-1, monocytic leukemia, methods of point 1, read-out: IC50-values): 0.2 nM; IC50 (A549 cells; A549, lung carcinoma, methods of point 1, read-out: IC50-values): 2 nM; IC50 [1]: 0.5 nM |
| O=C(C=Cc1cccnc1)NCCCCNC(c1ccccc1)c1ccccc1 [Substance 187, N-[4-(benzhydryl-amino)-butyl]-3-pyridin-3-yl-acrylamide] | 101 to 102 °C | IC50 (HepG2 cells; [3]): 200 nM; IC50 (A549 cells; [2]): 400 nM |
| CN(CCCCNC(=O)C=Cc1cccnc1)CCN(C)C(c1ccccc1)c1ccccc1 [Substance 193, N-(4-{[2-(benzhydryl-methyl-amino)-ethyl]-methyl-amino}-butyl)-3-pyridin-3-yl-acrylamide] | 89 to 91 °C | IC50 (A549 cells; [2]): 1000 nM |
| O=C(C=Cc1cccnc1)NCCCCN1CCc2ccccc2C(c2ccccc2)C1 (centres unmarked) [Substance 207, N-[4-(1-phenyl-1,2,4,5-tetrahydrobenzo[d]azepin-3-yl)-butyl]-3-pyridin-3-yl-acrylamide] | 92 to 94 °C |  |
| O=C(C=Cc1cccnc1)NCCCCNC(=O)C(c1ccccc1)c1ccccc1 [Substance 247, N-(4-diphenylacetylamino-butyl)-3-pyridin-3-yl-acrylamide] | 171 to 172 °C | IC50 (A549 cells; [2]): 2000 nM; IC50 [1]: 80 nM |
| O=C(C=Cc1cccnc1)NCCCCNC(=O)N(c1ccccc1)c1ccccc1 [Substance 268, N-[4-(3,3-diphenyl-ureido)-butyl]-3-pyridin-3-yl-acrylamide] | 123 to 125 °C |  |
| O=C(C=Cc1cccnc1)NCCCCCCNC(=O)N(c1ccccc1)c1ccccc1 [Substance 270, N-[6-(3,3-diphenyl-ureido)-hexyl]-3-pyridin-3-yl-acrylamide] | 105 to 107 °C |  |
| O=C(C=Cc1cccnc1)NCCCCCCNC(=O)N1c2ccccc2CCc2ccccc21 [Substance 295, N-[6-(10,11-dihydro-dibenzo[b,f]azepin-5-yl-carbonylamino)-hexyl]-3-pyridin-3-yl-acrylamide] | 97 to 99 °C |  |
| Cc1ccc(S(=O)(=O)NCCCCCCNC(=O)C=Cc2cccnc2)cc1 [Substance 310, 3-Pyridin-3-yl-N-[6-(tosylamino)-hexyl]-acrylamide] | 91 to 93 °C |  |
